Measured values reported in PMC12040169 (PLOS Biology, 2025).

Assay: in vitro
Settings: human, hela cells, % viability

SMILES | viability at 28.5 h, 10 µM [%]
CCC1Oc2ccc(C(O)c3ccco3)cc2N(Cc2cccc(OC)c2)C1=O (stereo not shown) [CBK286190] | 89.7
COc1cc2c(cc1OC)C1c3ccccc3N(Cn3nnc4ccccc43)C(=O)N1CC2 (stereo not shown) [CBK286193] | 84.2
Cc1ccc2c(c1)oc(=O)n2CCNC(=O)CC1c2ccccc2Oc2ccccc21 [CBK286194] | 94.8
c1ccc(-c2nnc(-c3ccco3)c(-c3ccco3)n2)cc1 [CBK286196] | 83.7
O=C(NCCn1c(=O)oc2ccccc21)C(c1cccs1)c1cccs1 [CBK286198] | 99.8
CC(=O)N1CCc2sccc2C1c1ccc(NC(=O)c2ccco2)cc1 (stereo not shown) [CBK286199] | 102
CN(C)c1ccc(NC(=O)CN2C(=O)[C@H]3CCCN3c3ncccc32)cc1 [CBK286202] | 118
O=C(CN1C(=O)[C@@H]2CCCN2c2ncccc21)NC1CCCCC1 [CBK286204] | 116
COc1cccc(-c2cccc(C3CCCN(C(=O)Cc4c[nH]c5ccccc45)C3)n2)c1 (stereo not shown) [CBK286207] | 114
O=C(COc1ccccc1)N1CCC(c2cccc(Cc3ccccc3F)n2)CC1 [CBK286211] | 104
COc1ccc(CCC(=O)N2CCC(c3cccc(Cc4cccc(F)c4)n3)CC2)cc1 [CBK286212] | 105
O=C(Cc1ccc(F)cc1)N1CCC(c2cccc(Cc3ccccc3F)n2)CC1 [CBK286213] | 117
O=C(CN1CCCC1)N1CCC(c2cccc(Cc3ccc(C(F)(F)F)cc3)n2)CC1 [CBK286215] | 106
Cc1ncsc1C(=O)N1CCC(c2cccc(Cc3ccc(C(F)(F)F)cc3)n2)CC1 [CBK286216] | 99.5
COc1ccccc1-c1cccc(C2CCCN(C(=O)CCCc3ccccc3)C2)n1 (stereo not shown) [CBK286217] | 100
O=C(c1ccccc1)N1CCCC(c2nccnc2-c2cccc(C(F)(F)F)c2)C1 (stereo not shown) [CBK286218] | 99.9
O=C(CCc1ccccc1)N1CCC(c2cccc(Cc3cccc(F)c3)n2)CC1 [CBK286219] | 97.5
COc1ccc(CC(=O)N2CCCC2c2cccc(Cc3cccc(F)c3)n2)cc1 (stereo not shown) [CBK286220] | 108
O=C(Cc1cccnc1)N1CCC(c2cccc(Cc3ccc(C(F)(F)F)cc3)n2)CC1 [CBK286223] | 92.8
COc1ccc(CC(=O)N2CCCC(c3nc(C)c4c(n3)N(CC3CC3)CCC4)C2)cc1 (stereo not shown) [CBK286228] | 100

SMILES | viability at 28.5 h, 10 µM [%]
COc1ccccc1Cc1cccc(C2CCCN2C(=O)CCc2ccccc2)n1 (stereo not shown) [CBK286229] | 108
O=C(COc1ccccc1)N1CCCC1c1cccc(Cc2ccc(F)cc2)n1 (stereo not shown) [CBK286230] | 102
O=C(Cc1ccc(F)cc1)N1CCCC1c1cccc(Cc2ccc(F)cc2)n1 (stereo not shown) [CBK286234] | 94.7
O=C(COc1ccc(F)cc1)N1CCCC1c1cccc(Cc2ccc(F)cc2)n1 (stereo not shown) [CBK286235] | 99.3
COc1ccccc1Cc1cccc(C2CCN(C(=O)c3ccccc3)CC2)n1 [CBK286236] | 101
Cc1cccc(Cc2cccc(C3CCCN(C(=O)c4ccc(=O)[nH]c4)C3)n2)c1 (stereo not shown) [CBK286243] | 95.9
CCn1ncc(S(=O)(=O)N2CCCC(c3cccc(Cc4cccc(C)c4)n3)C2)c1C (stereo not shown) [CBK286244] | 97.7
O=C(CCc1ccc(F)cc1)N1CCC(CC(=O)N2CCN(c3ccccc3)CC2)CC1 [CBK286245] | 108
CCC(=O)N1CCCC1c1nc(C)c2c(n1)N(Cc1ccc(F)cc1)CCC2 (stereo not shown) [CBK286247] | 104
Cc1nc(C2CCCN2C(=O)CC2CCCC2)nc2c1CCCN2Cc1ccccn1 (stereo not shown) [CBK286252] | 105
CN(C)c1ncc(-c2ccccc2)c(C2CCCN2Cc2ccc3ncccc3c2)n1 (stereo not shown) [CBK286256] | 77.6
Cc1nc(C2CCCN(C(=O)C3CCC3)C2)nc2c1CCCN2Cc1ccccc1 (stereo not shown) [CBK286257] | 78.2
CCCn1cc(S(=O)(=O)N2CCCC2c2ccc(Nc3cccc(C)n3)cn2)c(C)n1 (stereo not shown) [CBK286258] | 77.6
CN(Cc1ccc2ncccc2c1)C(=O)CC1CCN(CCc2ccccc2)CC1 [CBK286261] | 108
Cc1cc(Cc2ccccc2Cl)cc(C2CCCN(CC(=O)N(C)C)C2)n1 (stereo not shown) [CBK286262] | 87.6
COc1ccc(C2CCCN2C(=O)CC2CCN(C(=O)CC3CCCCC3)CC2)cc1 (stereo not shown) [CBK286263] | 102
COc1cccc(C2CCCN2C(=O)CC2CCN(C(=O)CC3CCCCC3)CC2)c1 (stereo not shown) [CBK286264] | 98.4
CN(CC1COc2ccccc2O1)C(=O)CC1CCN(C(=O)CC2CCCCC2)CC1 (stereo not shown) [CBK286265] | 92.7
O=C(CC1CCN(C(=O)c2ccc3nsnc3c2)CC1)N1CCN(c2ccccc2)CC1 [CBK286266] | 85.9
O=C(CC1CCCC1)N1CCC(c2cc(CCOc3cccc(C(F)(F)F)c3)[nH]n2)C1 (stereo not shown) [CBK286267] | 89.4

SMILES | viability at 28.5 h, 10 µM [%]
O=C1C(C2CCN(Cc3ccc4ncccc4c3)CC2)CC=CCN1Cc1ccccc1 (stereo not shown) [CBK286269] | 108
CN(C)C(=O)C1(Cc2ccc(-c3cccs3)cc2)CCN(C(=O)c2ccccc2)CC1 [CBK286270] | 85.5
O=C(CCC1CCCCC1)N1CCC(c2n[nH]cc2C(=O)N2CCc3ccccc3C2)CC1 [CBK286271] | 95.4
COc1ccccc1OCc1cc(C)c(C(=O)N2CCN(C)CC2c2ccccc2)o1 (stereo not shown) [CBK286273] | 89.3
CCCNC(=O)C1(Cc2ccccc2-c2ccccc2)CCN(C(=O)c2ccccc2)CC1 [CBK286275] | 89.3
CN(Cc1ccccc1)CC(O)c1ccc2c(c1)CCCN2C(=O)c1ccccc1F (stereo not shown) [CBK286278] | 88.2
O=C1CCCC[C@@H]2[C@@H](N1)[C@H](c1ccccc1)CN2Cc1ccnc2ccccc12 [CBK286280] | 102
O=C(c1ccco1)N1CCC(c2nnc(-c3ccccc3)c(-c3ccccc3)n2)CC1 [CBK286282] | 86.4
COc1ccccc1-c1nnc(NCc2ccc3c(c2)OCO3)nc1-c1ccccc1OC [CBK286284] | 96.4
COc1ccc([C@H]2CN(Cc3ccccc3)[C@@H]3CCN(C(=O)Cc4ccccc4)C[C@H]23)cc1 [CBK286285] | 108
O=C(Nc1cccc(CCc2ccncc2)c1)C1CC(=O)N(Cc2ccncc2)C1 (stereo not shown) [CBK286287] | 89.6
CC(=O)NC1(c2ccccc2)CCN(C(=O)Nc2ccccc2-c2ccccc2)CC1 [CBK286288] | 94.9
O=C(c1ccccc1)N1C[C@H](c2ccc(F)cc2)[C@H]2CN(CCc3ccccc3)CC[C@H]21 [CBK286291] | 98.2
COc1cccc(CN2CC[C@@H]3[C@H](C2)[C@@H](c2ccc(F)cc2)CN3C(=O)c2ccccc2)c1 [CBK286292] | 107
O=C(Cc1ccc(-c2ccccc2)cc1)NCc1nnc(-c2cccs2)o1 [CBK286295] | 94.3
O=C(NCc1nnc(-c2cccs2)o1)C1c2ccccc2Oc2ccccc21 [CBK286297] | 94.8
Cc1ccc(-c2nnc(CNC(=O)c3ccccc3-c3ccccc3)o2)s1 [CBK286298] | 89.2
Cc1ccc(-c2nnc(CNC(=O)C(c3ccccc3)c3ccccc3)o2)s1 [CBK286299] | 102
